Entries after “also recorded” stand apart in the source; their conditions may differ. Where two headings read alike, the source gives them in different places.
What was measured:
[1] = target: T1, IL-17RA D262A mutant (Homo sapiens, UniProt Q96F46, D293A); experiment: Microscale thermophoresis of IL-17A binding to IL-17RA D262A mutant; details: read-out: binding affinity (Kd) of IL-17RA D262A for IL-17A, MST
[2] = target: IL-17A/IL-17RA binding (Homo sapiens, UniProt Q96F46); experiment: Ligand-receptor binding inhibition assay
Sequence of IL-17A/IL-17RA binding (Q96F46 33-322): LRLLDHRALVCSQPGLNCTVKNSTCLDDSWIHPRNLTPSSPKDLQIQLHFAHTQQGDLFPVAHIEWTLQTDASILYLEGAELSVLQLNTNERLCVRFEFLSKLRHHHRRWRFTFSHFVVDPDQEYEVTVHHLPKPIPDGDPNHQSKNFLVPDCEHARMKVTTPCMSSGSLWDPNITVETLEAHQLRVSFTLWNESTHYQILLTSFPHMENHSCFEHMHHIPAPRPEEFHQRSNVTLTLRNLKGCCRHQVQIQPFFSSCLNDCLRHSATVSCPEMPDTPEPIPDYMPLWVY

[3] = target: human IL-17RA D262A mutant protein (soluble, secreted, hexahistidine-tagged) (human); experiment: MST
[4] = test system: WT C57BL/6 mice; experiment: Intradermal injection of IL-17A into ears, epidermal hyperplasia; assay type: in vivo, mouse; details: IL-17 plus A18 vs PBS-treated mice, RT-PCR
[5] = target: T2, IL-17E/IL-17RB binding (Homo sapiens, UniProt Q9NRM6); experiment: Ligand-receptor binding inhibition assay; details: serial dilutions, purified proteins
T2 sequence (Q9NRM6 18-289): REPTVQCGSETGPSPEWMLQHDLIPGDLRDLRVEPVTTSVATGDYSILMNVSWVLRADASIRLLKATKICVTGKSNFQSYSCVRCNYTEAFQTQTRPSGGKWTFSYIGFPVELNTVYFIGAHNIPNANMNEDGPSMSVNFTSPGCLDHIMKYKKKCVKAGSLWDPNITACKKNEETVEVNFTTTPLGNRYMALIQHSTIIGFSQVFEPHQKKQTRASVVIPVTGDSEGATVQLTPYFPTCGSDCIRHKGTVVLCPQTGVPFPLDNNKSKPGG

[6] = test system: IL-17E; assay type: cell-based, mouse; details: IL-17RB–expressing MEFs, 24 hours
[7] = target: IL-17RA (WT) (Homo sapiens, UniProt Q96F46); experiment: Fluorescence quenching assay of A18 binding to labeled IL-17RA
Sequence of IL-17RA (WT) (Q96F46 33-320 limits assumed): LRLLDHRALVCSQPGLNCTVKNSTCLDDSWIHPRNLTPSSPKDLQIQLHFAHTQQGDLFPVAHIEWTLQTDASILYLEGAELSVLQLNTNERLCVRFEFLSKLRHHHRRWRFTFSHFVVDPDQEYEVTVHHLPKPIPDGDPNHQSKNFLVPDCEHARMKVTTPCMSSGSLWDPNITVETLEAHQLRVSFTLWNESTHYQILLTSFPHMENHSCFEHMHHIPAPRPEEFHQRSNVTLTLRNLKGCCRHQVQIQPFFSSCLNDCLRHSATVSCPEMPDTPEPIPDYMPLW

[8] = test system: IL-17A/IL-17F; experiment: IL-17A/IL-17F–stimulated expression of target genes in cultured cells; assay type: cell-based
[9] = test system: WT C57BL/6 mice; experiment: Adoptive transfer of OVA-specific TH2 cells, eosinophilic airway inflammation; assay type: in vivo, mouse; details: RT-PCR
[10] = test system: IL-17A; experiment: IL-17A–stimulated cytokine and chemokine production in human cells; assay type: cell-based; details: 24 hours, ELISA
[11] = test system: IL-17F; experiment: IL-17F–stimulated expression of target genes in cultured cells; assay type: cell-based
[12] = test system: WT C57BL/6 mice; experiment: TPA-induced skin hyperplasia; assay type: in vivo, mouse; details: dorsal skin, RT-PCR (Myc, Cxcl1, Steap4), day 7
[13] = target: IL-17RA (Homo sapiens, UniProt Q96F46); experiment: Surface plasmon resonance; assay type: binding; details: immobilized IL-17RA on CM5 chip
Sequence of IL-17RA (Q96F46 33-320 limits assumed): as above

[14] = target: T1, IL-17RA D262A mutant; experiment: Fluorescence quenching assay of A18 binding to labeled IL-17RA D262A mutant
[15] = test system: WT C57BL/6 mice; experiment: HDM-induced severe asthma model; assay type: in vivo; details: A18 120 μg per mouse i.p. days 13 and 14 plus 60 μg per mouse intranasally 1 hour before challenge
[16] = test system: IL-17A; experiment: IL-17A–mediated signaling events in HeLa cells; assay type: cell-based, human
[17] = test system: IL-17E; experiment: IL-17E–stimulated CXCL1 production / target gene expression in HT29 cells; assay type: cell-based, human; details: 24 hours
[18] = target: T3, IL-17C/IL-17RE binding (Homo sapiens, UniProt Q8NFR9); experiment: Ligand-receptor binding inhibition assay; details: serial dilutions, purified proteins
T3 sequence (Q8NFR9 155-454): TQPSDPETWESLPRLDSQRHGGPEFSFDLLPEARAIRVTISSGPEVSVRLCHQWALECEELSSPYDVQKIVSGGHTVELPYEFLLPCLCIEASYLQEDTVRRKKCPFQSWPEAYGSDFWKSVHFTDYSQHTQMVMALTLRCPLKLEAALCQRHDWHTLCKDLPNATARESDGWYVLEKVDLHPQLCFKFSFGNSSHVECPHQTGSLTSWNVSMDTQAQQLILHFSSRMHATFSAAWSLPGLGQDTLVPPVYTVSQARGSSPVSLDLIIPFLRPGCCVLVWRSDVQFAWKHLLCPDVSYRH

[19] = target: IL-17RA on IL-17RA–293 cells and HeLa cells (Homo sapiens, UniProt Q96F46); experiment: Binding of biotinylated IL-17A to live cells, flow cytometry; assay type: cell-based; details: A18 10 μM
Sequence of IL-17RA on IL-17RA–293 cells and HeLa cells (Q96F46 33-866): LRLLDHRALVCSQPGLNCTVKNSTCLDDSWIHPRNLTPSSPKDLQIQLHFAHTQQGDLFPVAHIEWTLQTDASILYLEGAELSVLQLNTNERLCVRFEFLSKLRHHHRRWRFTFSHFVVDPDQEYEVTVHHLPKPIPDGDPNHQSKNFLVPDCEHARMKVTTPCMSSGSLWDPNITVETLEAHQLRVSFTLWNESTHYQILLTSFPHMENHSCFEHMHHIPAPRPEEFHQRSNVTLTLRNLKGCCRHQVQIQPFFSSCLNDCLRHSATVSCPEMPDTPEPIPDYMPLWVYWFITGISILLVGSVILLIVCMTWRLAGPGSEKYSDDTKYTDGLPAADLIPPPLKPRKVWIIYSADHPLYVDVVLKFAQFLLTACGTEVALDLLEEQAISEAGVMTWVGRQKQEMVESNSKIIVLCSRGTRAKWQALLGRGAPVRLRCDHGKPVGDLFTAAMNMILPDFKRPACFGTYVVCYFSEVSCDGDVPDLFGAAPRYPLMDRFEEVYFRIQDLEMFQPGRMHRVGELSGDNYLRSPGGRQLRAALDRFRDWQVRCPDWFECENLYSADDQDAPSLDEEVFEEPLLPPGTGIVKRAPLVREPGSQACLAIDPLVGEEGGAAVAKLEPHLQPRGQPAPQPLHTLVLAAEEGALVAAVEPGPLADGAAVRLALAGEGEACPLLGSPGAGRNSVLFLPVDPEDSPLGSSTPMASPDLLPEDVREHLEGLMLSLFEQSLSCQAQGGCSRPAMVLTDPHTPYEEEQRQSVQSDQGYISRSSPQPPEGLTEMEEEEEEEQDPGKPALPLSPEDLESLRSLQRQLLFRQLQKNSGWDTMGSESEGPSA

[20] = test system: WT BALB/cJ mice; experiment: Intranasal injection of IL-17A, pulmonary neutrophilia; assay type: in vivo; details: A18 60 μg per mouse intranasally, 4 hours
[21] = test system: WT C57BL/6 mice; experiment: Adoptive transfer of OVA-specific TH17 cells, neutrophilic airway inflammation; assay type: in vivo, mouse; details: TH17 cell transfer, RT-PCR
[22] = test system: WT BALB/cJ mice; experiment: Intranasal injection of IL-17E, pulmonary eosinophilia; assay type: in vivo; details: A18 60 μg per mouse intranasally, 24 hours
[23] = test system: IL-17A; experiment: IL-17A–stimulated cytokine and chemokine production in mouse cells; assay type: cell-based; details: 24 hours, ELISA
[24] = test system: WT C57BL/6J mice; experiment: Adoptive transfer of MOG-specific TH17 cells to induce EAE; assay type: in vivo, mouse
[25] = target: T4, human IL-17RE-Fc (human, UniProt Q8NFR9 155-454); experiment: ELISA
T4 sequence (looked up): T3 sequence (Q8NFR9 155-454)

[26] = target: T5, human IL-17RB-Fc (human, UniProt Q9NRM6 18-289); experiment: ELISA
T5 sequence (looked up): T2 sequence (Q9NRM6 18-289)

[27] = TH17 cell–mediated EAE, flow cytometry

T1 sequence (Q96F46 33-320 D293A): as the sequence (Q96F46 33-320 limits assumed) above, with D261A counted along it

## IL-17A: purified recombinant human interleukin-17A, cytokine ligand of IL-17RA
[1]
  Kd: 1570 nM

## Oc1ccc(-c2[o+]c3cc(O)cc(O)c3cc2O)cc1 [pelargonidin]
[2]
  IC50: > 100 µM

## OC[C@H]1O[C@@H](Oc2cc3c(O)cc(O)cc3[o+]c2-c2ccc(O)c(O)c2)[C@H](O)[C@@H](O)[C@@H]1O [cyanidin-3-O-glucoside]
[2]; read-out: IC50, inhibition of IL-17A/IL-17RA binding, in vitro ligand-receptor binding inhibition assay, purified proteins
  IC50: 6.88 µM

## purified recombinant human IL-17A (from UniProt Q16552 24-155) (ligand)
[3]
  Kd: 1570 nM

## Oc1cc(O)c2cc(O)c(-c3ccc(O)c(O)c3)[o+]c2c1.[Cl-] [A18, 2-(3,4-dihydroxyphenyl)-3,5,7-trihydroxy-1-benzopyrylium chloride]
[4]
  abundances of Myc, Cxcl1 and Steap4 mRNAs in the ears: not substantially increased
[5]
  disruption of IL-17E/IL-17RB binding: did not efficiently disrupt
[6]
  IL-17E–stimulated production of CXCL1 / expression of target genes: limited inhibitory activity; also recorded: little effect
[7]
  Kd: ~3 µM
[2]
  IC50: 1.68 µM
[8]
  IL-17A/IL-17F–stimulated expression of target genes: inhibited
[9]
  expression of genes encoding TH2 cell–type cytokines in the lungs: no effect
[10]
  IL-17A–stimulated production of CXCL1 (GROα), IL-6 and IL-8: substantially inhibited
[11]
  IL-17F–stimulated expression of target genes: inhibited
[12]
  TPA-induced expression of target genes: substantially reduced
[13]
  binding to IL-17RA by SPR: confirmed the binding
[14]
  Kd: 6.35 µM
[15]
  HDM-induced AHR: substantially reduced
  HDM-induced inflammatory gene expression in the lungs: substantially reduced
  HDM-induced neutrophilia: substantially reduced
[16]; 10 μM A18
  IL-17A–mediated recruitment of Act1 to IL-17RA: decreased
[16]; pretreated 1 hour with 10 μM A18
  IL-17A–mediated phosphorylation of IκBα, JNK, p38 and ERK1/2: decreased
[17]
  IL-17E–stimulated production of CXCL1 / expression of target genes: limited inhibitory activity; also recorded: little effect
[18]
  disruption of IL-17C/IL-17RE binding: did not efficiently disrupt
[19]
  binding of IL-17A to ectopically expressed or endogenous IL-17RA on live cells: inhibited
[20]
  IL-17A–induced pulmonary neutrophilia: substantially inhibited
  expression of IL-17A target genes (Cxcl1, Il6, Ccl11) in lung: substantially inhibited
[21]
  inflammatory gene expression in the lungs: substantially reduced
[22]
  IL-17E–induced pulmonary eosinophilia: did not inhibit
[22]; IL-17E
  TH2 cell–associated gene expression in lung: did not inhibit
[23]
  IL-17A–stimulated production of CXCL1 (KC), IL-6 and CXCL2 (MIP-2): substantially inhibited
[24]; A18 withdrawn on day 15, compared with mice never treated with A18
  EAE disease severity (peak and remission stages) after cessation of A18: substantially reduced
[24]; EAE recovery phase (day 20)
  numbers of CD4+CD25+Foxp3+ Treg cells in lymphoid organs or CNS: did not affect
[24]; TH17 cell–mediated EAE
  demyelination in the spinal cords: diminished demyelination
  expression of IL-17A target genes: reduced expression
[24]; [27]
  infiltration into the brains of CD4+ T cells, CD8+ T cells or F4/80+ macrophages: no effect
  recruitment of Ly6G+ neutrophils into the brains: substantially reduced

## Oc1cc(O)c2cc(O)c(-c3cc(O)c(O)c(O)c3)[o+]c2c1 [A10, delphinidin]
[2]; in words, relative to A18
  IC50 value compared to that of A18, IL-17A/IL-17RA binding: slightly improved

## Oc1cc(O)c2ccc(-c3ccc(O)c(O)c3)[o+]c2c1 [luteolinidin]
[2]
  IC50: 6.75 µM

B1: purified recombinant human IL-17C (ligand, UniProt Q9P0M4 19-197, looked up)
chain: HHDPSLRGHPHSHGTPHCYSAEELPLGQAPPHLLARGAKWGQALPVALVSSLEAASHRGRHERPSATTQCPVLRPEEVLEADTHQRSISPWRYRVDTDEDRYPQKLAFAECLCRGCIDARTGRETAALNSVRLLQSLLVLRRRPCSRDGSGLPTPGAFAFHTEFIHVPVGCTCVLPRSV
[25]
  binding result: binds

B2: purified recombinant human IL-17E (IL-25) (ligand, UniProt Q9H293 33-177, looked up)
chain: YSHWPSCCPSKGQDTSEELLRWSTVPVPPLEPARPNRHPESCRASEDGPLNSRAISPWRYELDRDLNRLPQDLYHARCLCPHCVSLQTGSHMDPRGNSELLYHNQTVFYRRPCHGEKGTHKGYCLERRLYRVSLACVCVRPRVMG
[26]
  binding result: binds

— article PMC5520994 (Science signaling, 2017)
